Measured values reported in patent US20100130618A1, “TREATMENT OF HUMAN DISEASE CONDITIONS AND DISORDERS USING VITAMIN K ANALOGUES AND DERIVATIVES” (priority 2007, published 2010).
Where two headings read alike, the source gives them in different places.

How the values were obtained:
[1] = test system: Frog Heart; assay: Frog heart, adrenaline-induced contractions; details: for inhibition of adrenaline-induced contractions: 0.1 ml (40 μg), 0.2 ml (80 μg) and 0.4 ml (160 μg), adrenaline 40 μg/ml; for beta blocker activity (inference): overall inference from adrenalic response
Description: Frog Heart Adrenaline: 40 μg/ml

[2] = test system: Guinea Pig ileum; assay: Guinea pig ileum, histamine induced smooth muscle contraction; details: dose 640 μg (1.6 ml); histamine 25 μg/ml
Description: (§1) Muscle relaxant activity was evaluated of pure test samples PK and MK-4 with Frog Rectus Abdominus Muscle and Guinea Pig ileum.
(§2) To evaluate the effect of test samples on smooth muscle contraction induced by (a) Acetylcholine (Neurotransmitter) which acts on […] receptors, (b) Histamine that causes a transient rise of cytosolic calcium, which is mediated by H1 receptor coupling that triggers release of internal calcium stores and (c) Barium that enters the cell through a voltage dependent calcium channel and, either directly or indirectly, interacts with calmodulin.
(§3) Test Samples were PK-400 μg/ml and MK-4-400 μg/ml

[3] = test system: Frog Rectus Abdominus Muscle; assay: Frog rectus abdominus muscle preparation, acetylcholine induced skeletal muscle contraction; details: for antagonism of contraction induced by acetylcholine (40 μg): dose of 400 μg; for activity on skeletal muscle contraction (inference): overall inference
Description: as §1
B) Frog Rectus Abdominus Muscle Preparation
To evaluate the effect of test samples on skeletal muscle contraction induced by Acetylcholine (Neurotransmitter).
Acetylcholine: 100 mcg/ml
as §3

[4] = test system: Guinea Pig ileum; assay: Guinea pig ileum, acetylcholine induced smooth muscle contraction; details: for inhibition of acetylcholine induced smooth muscle contraction: acetylcholine 50 μg/ml; for smooth muscle relaxant activity (inference): overall inference from guinea pig ileum data
Description: as §1, §2, §3

[5] = test system: Guinea Pig ileum; assay: Guinea pig ileum, barium chloride induced smooth muscle contraction; details: dose 640 μg (1.6 ml); barium chloride 1%
Description: as §1, §2, §3

[6] = cited from earlier work
[7] = cited from earlier work; remark: listed apart in the source
[8] = Clinical case studies of oral MK-7 (Examples 1-10); type: in vivo, humans
Text: Examples 1-10 enumerate clinical case studies data and Examples 11 and 12 provide in vitro experiments.

[9] = cited from earlier work; remark: listed apart in the source
[10] = 50 gms natto per day with 865, 1295 or 1730 μg MK-7 per 100 g; cited from earlier work
[11] = Example 02: MK-7 p.o. every day
[12] = Example 05: person, 100 μg per day

With `CC(C)=CCC/C(C)=C/CC/C(C)=C/CC/C(C)=C/CC1=C(C)C(=O)c2ccccc2C1=O` [MK-4, menatetrenone] the “inhibition of adrenaline-induced contractions” value [1] was “failed to inhibit”, the “beta blocker activity (inference)” value [1] was “do not exhibit beta blocker activity” and the “inhibition of histamine induced smooth muscle contraction” value [2] was 29.4%. The “antagonism of contraction induced by acetylcholine (40 μg)” value [3] was “not antagonized”, the “activity on skeletal muscle contraction (inference)” value [3] was “failed to exhibit activity” and the “inhibition of acetylcholine induced smooth muscle contraction” value ([4]; dose 80 μg (0.2 ml)) was 21.62%. For the same compound, the “inhibition of acetylcholine induced smooth muscle contraction” value ([4]; dose 160 μg (0.4 ml)) was 40%, the “inhibition of acetylcholine induced smooth muscle contraction” value ([4]; dose 320 μg (0.8 ml)) was 81.81% and the “smooth muscle relaxant activity (inference)” value [4] was “demonstrate a smooth muscle relaxant activity”. For the same compound, the “inhibition of barium chloride induces smooth muscle contraction” value [5] was 29%.
For `CC(C)=CCC/C(C)=C/CC/C(C)=C/CC/C(C)=C/CC/C(C)=C/CC/C(C)=C/CC/C(C)=C/CC1=C(C)C(=O)c2ccccc2C1=O` [MK-7], the “reduction (mid tertile)” value ([6]; dietary intake 24 μg per day mid tertile vs 12 μg per day lower tertile) is given as 25%, the “reduction in CHD mortality and aortic calcification” value ([6]; dietary intake 45 μg per day upper tertile vs 12 μg per day lower tertile, 10 years follow-up) is given as 50% and the “reduction in all cause mortality” value ([6]; dietary intake 45 μg per day upper tertile vs 12 μg per day lower tertile) is given as 25%. The “concentration relative to the peak value concentration (Cmax) achieved by PK” value ([7]; at 72 hrs) was greater than 50%, the detectability in circulation ([7]; at 72 hrs) was “remains detectable” and the half life ([7]; in vivo) was 50 h. For the same compound, the “tingling, numbness and burning of feet” value ([8]; Example 01: person, type 2 diabetes, MK-7 100 μg per day for 2 months) was “complete relief”, the “skin hyper pigmentation of nape of neck” value ([8]; Example 01: person, type 2 diabetes, MK-7 for one and a half years) was “almost subsided” and the “energy levels and fatigue” value ([8]; Example 02: MK-7 added to schedule) was “higher energy levels and less fatigue”. For the same compound, the paper-money skin appearance [8, 11] was “much reduced”, the tingling and numbness [8, 11] was “reduced markedly” and the “frequency of mild cramps” value ([8]; Example 02: MK-7 p.o. every day, over the next four months (before: 2 to 3 times in a week)) was “one or two in a month”. For the same compound, the “severity and frequency of muscle cramps” value ([8]; Example 02: person, type 2 diabetes, hypertension, MK-7 p.o. every day, over the next two weeks) was “steadily decreased”, the “cramps during night and day” value ([8]; Example 03: person, 100 μg one tablet per day, after six months) was “disappeared” and the “rough skin on both heels” value ([8]; Example 04: person, daily dose 200 μg, within 10-15 days) was “completely lost roughness and became smooth”. For the same compound, the scalp hair-loss [8, 12] was “stopped distinctly”, the skin of feet [8, 12] was “smoothness of skin of their feet, diminution of cracks in the feet” and the “hyper pigmentation and paper-money skin of lower limbs” value ([8]; Example 05: person, p.o. 100 μg per day) was “gradually reduced to a bare minimum”. The “frequency, duration and severity of leg cramps” value ([8]; Example 06: person, 100 μg two times a day) was “decreased”, the skin lightening ([8]; Example 07: 100 μg twice a day, another 3 months (6 months total)) was “considerable lightening of the skin” and the “hyper pigmentation of face, arms and neck” value ([8]; Example 07: person, 100 μg twice a day, after 2 to 3 months) was “decreased”. For the same compound, the nail growth ([8]; Example 08: 200 μg per day, over 2 months) was “grows faster”, the “severity of cramps after marathon” value ([8]; Example 08: athlete, 200 μg per day, within 2 months) was “lowered” and the “residual neuropathy symptoms (tingling, numbness, paresthesiae, burning sensation)” value ([8]; Example 09: diabetic, 100 μg per day, within 15 days) was “disappears completely”. The “frequency of restless legs syndrome” value ([8]; Example 10: 200 μg per day for 1 year (before: every night)) was “once or twice a month”, the restless legs syndrome ([8]; Example 10: person, 200 μg per day, within 2 weeks) was “reduced considerably” and the “serum MK-7 concentration (mean±SD)” value ([9]; British women) was 0.37 ± 0.20 ng/mL. For the same compound, the “serum MK-7 concentration (mean±SD)” value ([9]; Japanese women in Hiroshima) was 1.22 ± 1.85 ng/mL, the “serum MK-7 concentration (mean±SD)” value ([9]; Japanese women in Tokyo) was 5.26 ± 6.13 ng/mL and the “serum MK-7 concentration and γ-carboxylated osteocalcin concentration” value [10] was “elevated parallel to the administered level”.
In the case of `CC1=C(C/C=C(\C)CCC[C@H](C)CCC[C@H](C)CCCC(C)C)C(=O)c2ccccc2C1=O` [PK, phylloquinone], the “inhibition of adrenaline-induced contractions” value [1] is reported as “failed to inhibit”, the “beta blocker activity (inference)” value [1] is reported as “do not exhibit beta blocker activity” and the “inhibition of histamine induced smooth muscle contraction” value [2] is reported as 37.16%. The elimination half life ([7]; in vivo) was 1.5 h, the absorption from vegetables ([7]; taken together with 30 g fat) was 10-15% and the absorption from vegetables ([7]; without concomitant fat intake) was 5-10%. For the same compound, the “antagonism of contraction induced by acetylcholine (40 μg)” value [3] was “not antagonized”, the “activity on skeletal muscle contraction (inference)” value [3] was “failed to exhibit activity” and the “inhibition of acetylcholine induced smooth muscle contraction” value ([4]; dose 320 μg (0.8 ml)) was 38.46%. The “inhibition of acetylcholine induced smooth muscle contraction” value ([4]; dose 640 μg (1.6 ml)) was 46.15%, the “smooth muscle relaxant activity (inference)” value [4] was “demonstrate a smooth muscle relaxant activity” and the “inhibition of barium chloride induces smooth muscle contraction” value [5] was 31%.
With `CC(C)NCC(O)COc1cccc2ccccc12` (stereo not drawn) [Propanolol] the “inhibition of adrenaline response” value ([1]; reference competitive inhibitor of adrenaline, FIG. 6) was “found to inhibit adrenaline response”.
For vitamin B12, the tingling and numbness ([8]; Example 02: vitamin B12 deficiency on Metformin, injections 500 μg over 2 weeks, MK-7 continued) was “significant relief”.
